The test system of one test is tumor S-180. Nature of the test: Stained dead tumor cells in peritoneal fluid of tumor-bearing mice (CUR). The class given is in vivo. Conditions: 12th day of tumor S-180 inoculation. The text has this: The acceptable criterion for determining the anti-tumor efficacy of the free CUR and PK-CUR-NP are the determination of the life span prolongation.
The number of dead cells in the peritoneal fluid of mice treated with PK-CUR-NP increased life span when compared to free CUR.

Another test deals with tyrosine kinase (TK). Briefly: Tyrosine kinase (TK) activity of HL-60 leukemia cells. The class given is cell-based, human. Conditions: 24 hours. The procedure:
H-60 leukemia cells were plated at a density of 5×10^5 cells in […], and divided control and treatments groups for incubation 24 hours at 37° C. with 5% CO2. The cells were collected and washed twice with phosphate-buffered saline and re-suspended at density of 10^6 cells/ml in 5 mM HEPEs buffer (pH 7.4). The cells were then re-suspended in 1 ml of buffer containing 5 mM HEPES (pH 7.6), 1 mM MgCl2 and 1 mM EDTA, then placed on ice bath. The cell membrane was disrupted by ultra sound and centrifuged at 1000×g for 10 minutes. The supernatant was ultra centrifuged at 30,000×g for 30 minutes at 4° C. The pellet was re-suspended in 0.3 ml of buffer containing 25 mM HEOES, centrifuged at 12,000×g for 5 minutes. The resulting supernatant was used for TK assay. Content of protein was determined. 10 μg of protein placed in 20 mM HEPES (pH 7.6), 15 mM MgCl2, 10 mM ZnCl2 and 5% (v/v) Nonidet P-40. After 5 minutes incubation at 25° C., the reaction was initiated by the addition of 25 μM [γ^32P] ATP (3 ci/mmol). After 10 minutes, the reaction was stopped by the addition of 20 mM cold ATP. […] Radioactivity was determined by liquid scintillation spectrometry. The net TK activity was determined after correcting for endogenous TK activity.

In a further test the test system is breast carcinoma MCF-7. Nature of the test: Inhibition of tumor cell proliferation, MCF-7. The class given is cell-based. Conditions: Homo sapiens, MCF7; 1 μg/ml, 72 hours. The procedure:
(§1) Human tumor cell lines: Hela leukemia HL-60, malignant melanocarcinoma B16, oral epidermoid carcinoma (KB), lung carcinoma (A549), breast carcinoma MCF-7, adenocarcinoma of stomach.
(§2) Animal tumor cell lines: Walker carcinoma, LLC-WRC-256, malignant melanoma (RMMI 1846), 3T3, and S-180 sarcoma (CCRF-180). All lines were routinely cultured in the RPMI1640 medium supplemented 20% fetal calf serum. The experiment was carried out in 96 microplate, each well had 5×10^5 cells and given desired concentration of 1 μg/ml (1×10^−6 g/ml) drug. Then the plate was incubated at 37° C. in an atmosphere of humidified air enriched with 5 percent carbon dioxide for 72 hours.
(§3) Inhibition percent rate of tumor cell proliferation was obtained according to the bellow formula. [formula]

The subject of a further test is L-120 leukemia. Briefly: Survival of mice bearing leukemia (free HHT vs PK-HHT-NP). The class given is in vivo. The source says: Methods: L-120 leukemia mice, weight 20-22 g were used in the experiment. […] The dose of PK-HHT-NP is equivalent of free HHT. (All the following comparing experiments are used same methods).
Test [1] concerns malignant melanocarcinoma B16. Nature of the test: Inhibition of tumor cell proliferation, B16. As to conditions: Mus musculus; 1 μg/ml, 72 hours. In kind it is cell-based, human. As for the experimental part:
as §1, §2, §3

The subject of the next test is P388 leukemia cells. Briefly: Anti-leukemia activity against P388 lymphocytic leukemia in mice (survival). The class given is in vivo. As to conditions: Example 54; i.p. once a day; dose 1, 10, 20 mg/kg/day, group not stated. The procedure:
Animals: Adult DBA/2J male mice, 6 to 8 weeks old. All animals weighed approximately 25 g when used in experiments. Mice were assigned randomly to treatment and control groups. Each member of which received identical dosed (i.p.) of PK or 0.9% NaCl solution for all injections. Volumes were 0.01 ml/g body weight.
Tumor: L1210 or P388 leukemia cells induced in mice by inoculation with L1210 or P388 leukemia cells (1.0×10^5).
The leukemia cells were passed i.p. weekly. L1210 or P388 cells were cultured at 37° C. in RPMI-1640 medium (GIBCO) without antibiotics and supplemented with 10% fetal calf serum.
After the tumor implantation (1×10^5 leukemia cells), PK was injected intraperitoneally once a day. The treatment was started between the end of 2nd and 6th day after inoculation. Dose of PK was 25 mg/kg/day for PK groups. Control mice were treated with same value of 0-9% NaCl. Anti-leukemia activity was expressed as T/C %. T is median survival days of treated group and C is that of control group. A T/C value was greater that 100% means the treated mice is surviving longer than the control mice. […] The statistical significance of data was determined by student's test. […]
After the tumor implantation (1×10^5 leukemia cells), PK-HHT-SSL was injected intraperitoneally once a day. […] Anti-leukemia activity was expressed as T/C %. […] The statistical significance of data was determined by student's test.

The test system of a further test is sarcoma-180 solid tumors. Nature of the test: Effect on sarcoma-180 solid tumors in mice (survival). As to conditions: Example 54; percentage survival, 30 days observation after tumor cell inoculation. The class given is in vivo.
For the next test, the system named is all cancer cells. Nature of the test: Inhibition of tumor cell proliferation, all cancer cells (statement). The class given is cell-based. The procedure:
as §1
Animal tumor cell lines: Walker carcinoma, LLC-WRC-256, malignant melanoma (RMMI 1846), 3T3, and S-180 sarcoma (CCRF-180). All lines were routinely cultured in the RPMI1640 medium supplemented 20% fetal calf serum. The experiment was carried out in 96 microplate, each well had 5×10^5 cells and given desired concentration of 1 μg/ml (1×10^−6 g/ml) drug. Then the plate was incubated at 37° C. in an atmosphere of humidified air enriched with 5 percent carbon dioxide for 72 hours. Concentration of ELE or PK-ELE-NP is 50 ng/ml.
as §3

As for `C=C1C[C@@]2(O)O[C@@]3(C[C@H]2C(C)C)[C@@H](C)CC[C@@H]13` [CUR, Curcumol], in the test on tumor S-180, the “Number of stained dead tumor cells (1 × 10^6 cells mL^−1)” value is 5.36 ± 0.95 1 × 10^6 cells mL^−1.
As for `COC(=O)C[C@](O)(CCCC(C)(C)O)C(=O)O[C@@H]1C(OC)=C[C@]23CCCN2CCc2cc4c(cc2[C@H]13)OCO4` [HHT, Homoharringtonine], the figures for the “% of control activity (TK)” value in the test on tyrosine kinase (TK) (Concentration 10^−6 M) and in the test with tyrosine kinase (TK) (Concentration 10^−7 M) were 20.8% and 14.8%, respectively. Besides, the inhibition (usually the change of the read-out against control, counted positive when it falls) at 1 µg/mL in the test on breast carcinoma MCF-7 was determined as 78.5 ± 7.9%; in test [1], 73.8 ± 8.1%. Besides, the “Survival time T/L days” value in the test on L-120 leukemia (Dose 1 mg/kg) is given as 5/9; in the test with L-120 leukemia (Dose 5 mg/kg), 27/9. The “T/C (%)” value in the test on L-120 leukemia (Dose 1 mg/kg) is reported as 55.6%; with L-120 leukemia (Dose 5 mg/kg), 300%. Further, the “Survival time” value with P388 leukemia cells was 19.8 ± 4.2 days. For the same compound, in the test on sarcoma-180 solid tumors, the “Mean survival (%)” value came to 58.6%.
For Eelemene, in the test on all cancer cells, the “Percent rates of inhibition” value was “more than 70%”.

Values taken from patent US20040192641A1, “Special preparation of anticancer drugs made by novel nanotechnology” (priority 2003, published 2004).
